Source: US11053205B2, “Phenazine derivatives as antimicrobial agents” (University of Florida Research Foundation, Incorporated, priority 2017, dated 2021)
In brackets after ≈: the same amount, converted by molar mass. Several values for one entry are separate records, joined by “and”; a condition that tells them apart may be missing. Equal values may be shown once. Read-outs that look alike come from different tables or passages of the source. Marks after values point to notes of the source that are not given here.

Legend:
MRSA BAA-1707 [1] = test: Metal(II)-cation co-treatment MIC assay; format: cell-based; conditions: Staphylococcus aureus
MRSA, MRSE, and VRE = test: MIC assays against MRSA, MRSE, and VRE (all strains); conditions: in words
MRSE 35984 biofilms = test: Calgary Biofilm Device (CBD) assay, MBC/MBEC; conditions: CBD; for MRSE 35984 MBEC: biofilm eradication; for MRSE 35984 MBC: planktonic killing
VRE 700221 = test: MIC, broth microdilution (CLSI); conditions: 16 to 18 hours at 37° C.
MRSA BAA-44 biofilms = test: Calgary Biofilm Device (CBD) assay, MBC/MBEC; conditions: for MRSA BAA-44 MBEC: biofilm eradication; for MRSA BAA-44 MBC: planktonic killing
MRSE 35984 = test: MIC, broth microdilution (CLSI); conditions: 16 to 18 hours at 37° C.
[2] = system: M. tuberculosis H37Ra (ATCC 25177); test: MIC assay for Mycobacterium tuberculosis; format: cell-based; conditions: read-out: MtB H37Ra MIC
Experimental: (§1) The culture was then diluted with fresh medium until an OD600 of 0.01 was reached. […] The final DMSO concentration was maintained at 0.5%. […] Three rows were reserved for each compound. […] OD600 absorbance was recorded using SPECTRAMAX M5 (Molecular Devices). Data obtained from three independent experiments were analyzed using Excel.
as §1, with “SpectraMax” for “SPECTRAMAX”

MRSA BAA-1707 biofilms = test: Calgary Biofilm Device (CBD) assay, MBC/MBEC; conditions: CBD; for MRSA BAA-1707 MBEC: biofilm eradication; for MRSA BAA-1707 MBC: planktonic killing
VRE 700221 biofilms = test: Calgary Biofilm Device (CBD) assay, MBC/MBEC; conditions: CBD; for VRE 700221 MBC: planktonic killing
MRSA-2 biofilms = test: Calgary Biofilm Device (CBD) assay, MBC/MBEC; conditions: CBD; for MRSA-2 MBEC: biofilm eradication; for MRSA-2 MBC: planktonic killing
MRSA BAA-1707 [3] = test: MIC, broth microdilution (CLSI); conditions: 16 to 18 hours at 37° C.; 0.10 = lowest concentration tested
MRSA-2 = test: MIC, broth microdilution (CLSI); conditions: 16 to 18 hours at 37° C.

Oc1cccc2nc3ccccc3nc12 [1-OHP, 1-hydroxyphenazine]
MIC (MRSA BAA-1707 [1]): 250 µM
MIC (MRSA BAA-1707 [1]; read-out: MIC w/ Cu2+): 75 µM
MIC (MRSA BAA-1707 [1]; read-out: MIC w/ Fe2+): 250 µM
MIC (MRSA BAA-1707 [1]; read-out: MIC w/ Mg2+): 250 µM
MIC (MRSA BAA-1707 [1]; read-out: MIC w/ Zn2+): > 500 µM

Oc1cccc2cccnc12 [8-OHQ, 8-hydroxyquinoline]
MIC (MRSA BAA-1707 [1]; read-out: MIC w/ Mg2+): 6.25 µM

OC[C@H]1O[C@@H](Oc2c(Br)cc(Br)c3nc4ccccc4nc23)[C@H](O)[C@@H](O)[C@@H]1O [79A]
activity in MIC assays (MRSA, MRSE, and VRE): no activity in MIC assays

COCCOCCOCCOC(=O)OCOc1c(Br)cc(Br)c2nc3ccccc3nc12 [80A]
activity in MIC assays (MRSA, MRSE, and VRE): no activity in MIC assays

O=C(OCCOCCOCCOCCO)OCOc1c(Br)cc(Br)c2nc3ccccc3nc12 [82A]
activity in MIC assays (MRSA, MRSE, and VRE): no activity in MIC assays

O=C(OCCSSCCOC(=O)c1ccccc1)OCOc1c(Br)cc(Br)c2nc3ccccc3nc12 [85A]
activity in MIC assays (MRSA, MRSE, and VRE): no antibacterial activity against any pathogen tested

Oc1c(Br)cc(Br)c2nc3ccccc3nc12 [Compound 1A]
MRSE 35984 MBEC (MRSE 35984 biofilms): 100 µM
MRSE 35984 MBC (MRSE 35984 biofilms): 50 µM
VRE 700221 MIC (VRE 700221): 6.25 µM
MRSA BAA-44 MBEC (MRSA BAA-44 biofilms): 150 µM
MRSA BAA-44 MBC (MRSA BAA-44 biofilms): 375 µM
MRSE 35984 MIC (MRSE 35984): 1.17^a μM and 1.17 μM
IC50 (HeLa cells): > 100 µM
MIC [2]: 25 µM (≈ 8.85 µg/mL)
MRSA BAA-1707 MBEC (MRSA BAA-1707 biofilms): 150 µM
MRSA BAA-1707 MBC (MRSA BAA-1707 biofilms): 37.5 µM and 18.8 µM
VRE 700221 MBC (VRE 700221 biofilms): 23.5 µM
MRSA-2 MBEC (MRSA-2 biofilms): 100 µM
MRSA-2 MBC (MRSA-2 biofilms): 50 µM

Oc1c(Br)cc(Br)c2nc3cc(Cl)ccc3nc12 [Compound 27]
MRSE 35984 MBEC (MRSE 35984 biofilms): 2.35 µM
MRSA BAA-1707 MIC (MRSA BAA-1707 [3]): 0.1 µM
MIC ([2]; seven days at 37° C.): 3.13 µM (≈ 1.22 µg/mL)

Cc1ccc2nc3c(O)c(Br)cc(Br)c3nc2c1 [Compound 52A]
Hemolysis at 200 μM (human red blood cells): ≤1%
VRE 700221 MIC (VRE 700221): 2.35^a μM
MRSE 35984 MIC (MRSE 35984): 0.3^a μM
MIC [2]: 6.25 µM (≈ 2.3 µg/mL)
VRE 700221 MBEC (VRE 700221 biofilms; biofilm eradication): 3.13 µM
VRE 700221 MBC (VRE 700221 biofilms): 12.5 µM

CCc1ccc2nc3c(O)c(Br)cc(Br)c3nc2c1 [Compound 53A]
Hemolysis at 200 μM (human red blood cells): 3.0%
MRSE 35984 MBEC (MRSE 35984 biofilms): 75 µM
MRSE 35984 MBC (MRSE 35984 biofilms): 50 µM
VRE 700221 MIC (VRE 700221): 2.35^a μM
MRSA BAA-44 MBEC (MRSA BAA-44 biofilms): 75^a/75^a μM
MRSA BAA-44 MBC (MRSA BAA-44 biofilms): 75^a/75^a μM
MRSE 35984 MIC (MRSE 35984): 0.1^b μM
MRSA BAA-1707 MIC (MRSA BAA-1707 [3]): 0.1^b μM
MRSA-2 MIC (MRSA-2): 0.59^a μM
MIC [2]: 6.25 µM (≈ 2.39 µg/mL)
MRSA BAA-1707 MBEC (MRSA BAA-1707 biofilms): 150 µM
MRSA BAA-1707 MBC (MRSA BAA-1707 biofilms): 75 µM
MRSA-2 MBEC (MRSA-2 biofilms): 150 µM
MRSA-2 MBC (MRSA-2 biofilms): 75 µM

CC(C)(C)c1ccc2nc3c(O)c(Br)cc(Br)c3nc2c1 [Compound 55A]
Hemolysis at 200 μM (human red blood cells): ≤1%
VRE 700221 MIC (VRE 700221): 0.1^b μM
MRSE 35984 MIC (MRSE 35984): 0.1^b μM
MRSA BAA-1707 MIC (MRSA BAA-1707 [3]): 0.1^b μM
MRSA-2 MIC (MRSA-2): 0.1^b μM
MRSA-2 MBEC (MRSA-2 biofilms): 3.13/3.13 μM
MRSA-2 MBC (MRSA-2 biofilms): 3.13/3.13 μM

Oc1c(Br)cc(Br)c2nc3cc(Cl)ccc3nc12 [Compound 61A]
Hemolysis at 200 μM (human red blood cells): ≤1%
MRSE 35984 MIC (MRSE 35984): 0.1^b μM
MRSA-2 MIC (MRSA-2): 0.1^b μM
MRSA-2 MBEC (MRSA-2 biofilms): 25 µM
MRSA-2 MBC (MRSA-2 biofilms): 6.25 µM

Oc1c(Br)cc(Br)c2nc3cc(Oc4ccccc4)ccc3nc12 [Compound 63A]
Hemolysis at 200 μM (human red blood cells): ≤1%
MRSE 35984 MIC (MRSE 35984): 0.1^b μM
MRSA BAA-1707 MIC (MRSA BAA-1707 [3]): 0.075^a μM
MRSA-2 MIC (MRSA-2): 0.39 µM
MIC [2]: 6.25 µM (≈ 2.79 µg/mL)
VRE 700221 MBC (VRE 700221 biofilms): 2.35 µM
